Our source for the EC50 values is US20240308978A1, “COMPOUNDS AND COMPOSITIONS FOR TREATING CONDITIONS ASSOCIATED WITH STING ACTIVITY” (IFM Due, Inc., priority 2021, published 2024).

T1 sequence (Q86WV6 whole entry R71H/G230A/H232R/R293Q): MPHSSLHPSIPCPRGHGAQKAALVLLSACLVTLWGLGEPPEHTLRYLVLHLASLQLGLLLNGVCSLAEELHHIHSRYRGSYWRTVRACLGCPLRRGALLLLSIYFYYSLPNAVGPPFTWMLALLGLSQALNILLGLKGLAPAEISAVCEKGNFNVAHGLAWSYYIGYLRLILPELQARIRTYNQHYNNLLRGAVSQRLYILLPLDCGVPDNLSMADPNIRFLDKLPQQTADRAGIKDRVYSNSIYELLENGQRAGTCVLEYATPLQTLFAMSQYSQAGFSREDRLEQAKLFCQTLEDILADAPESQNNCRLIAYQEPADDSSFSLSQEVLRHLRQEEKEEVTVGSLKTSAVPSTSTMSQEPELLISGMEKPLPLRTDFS

One experiment concerns the target T1, hSTING (Homo sapiens, UniProt Q86WV6, G230A/H232R/R293Q/R71H).
T1 construct: host or cells: THP1-Dual KO-IFNAR2 cells
The experiment is described as follows: STING reporter assay (luciferase) in THP1-Dual KO-IFNAR2 cells stimulated with 2′3′cGAMP. In kind it is cell-based. As to conditions: 15 μM 2′3′cGAMP transfected, 24 h, class symbols. Here is the method:
STING pathway activation by the compounds described herein was measured using THP1-Dual™ cells (KO-IFNAR2).
THP1-Dual™ KO-IFNAR2 Cells (obtained from invivogen) were maintained in RPMI, 10% FCS, 5 ml P/S, 2 mM L-glut, 10 mM Hepes, and 1 mM sodium pyruvate. Compounds were spotted in empty 384 well tissue culture plates (Greiner 781182) by Echo for a final concentration of 0.0017-100 μM. Cells were plated into the TC plates at 40 μL per well, 2×10E6 cells/mL. For activation with STING ligand, 2′3′cGAMP (MW 718.38, obtained from Invivogen), was prepared in Optimem media.
The following solutions were prepared for each 1×384 plate: • Solution A: 2 mL Optimem with one of the following stimuli: • 60 μL of 10 mM 2′3′cGAMP→150 μM stock • Solution B: 2 mL Optimem with 60 μL Lipofectamine 2000→Incubate 5 min at RT
2 mL of solution A and 2 ml Solution B was mixed and incubated for 20 min at room temperature (RT). 20 μL of transfection solution (A+B) was added on top of the plated cells, with a final 2′3′cGAMP concentration of 15 μM. The plates were then centrifuged immediately at 340 g for 1 minute, after which they were incubated at 37° C., 5% CO2,>98% humidity for 24 h. Luciferase reporter activity was then measured. EC50 values were calculated by using standard methods known in the art.
Luciferase reporter assay: 10 μL of supernatant from the assay was transferred to white 384-plate with flat bottom and squared wells. One pouch of QUANTI-Luc™ Plus was dissolved in 25 mL of water. 100 μL of QLC Stabilizer per 25 mL of QUANTI-Luc™ Plus solution was added. 50 μL of QUANTI-Luc™ Plus/QLC solution per well was then added. Luminescence was measured on a Platereader (e.g., Spectramax I3X (Molecular Devices GF3637001)).
Luciferase reporter activity was then measured. EC50 values were calculated by using standard methods known in the art.
On the technique in general: A reporter such as luciferase makes a cellular process visible.
As to `O=C(Nc1c[nH]c2cc(F)c(F)cc12)N[C@H]1CC[C@H](OC2CC(F)(F)C2)CC1` [Compound 101, 1-(5,6-difluoro-1H-indol-3-yl)-3-((1r,4r)-4-(3,3-difluorocyclobutoxy)cyclohexyl)urea], the EC50 (commonly the concentration at which the effect is half-maximal) fell in the range of 1 to 5 µM.
Molecule `O=C(Nc1c[nH]c2ccc(Cl)cc12)N[C@H]1CC[C@@H](N2CCC(F)(F)CC2)CC1` [Compound 102, 1-(5-chloro-1H-indol-3-yl)-3-((1s,4s)-4-(4,4-difluoropiperidin-1-yl)cyclohexyl)urea] had an EC50 of 5 to 100 µM.
The same measure, in the same setting: then `O=C(Nc1c[nH]c2ccc(Cl)cc12)N[C@H]1CC[C@H](N2CCC(F)(F)CC2)CC1` [Compound 103, 1-(5-chloro-1H-indol-3-yl)-3-((1r,4r)-4-(4,4-difluoropiperidin-1-yl)cyclohexyl)urea], with 5 to 100 µM; and `O=C(Nc1c[nH]c2cc(F)c(F)cc12)NC1CC(OC2CCN(CC(F)(F)F)CC2)C1` (stereo not drawn) [Compound 104, 1-(5,6-difluoro-1H-indol-3-yl)-3-(3-((1-(2,2,2-trifluoroethyl)piperidin-4-yl)oxy)cyclobutyl)urea], with 1 to 5 µM.
On the same count and under the same terms, the same measure for `O=C(Nc1c[nH]c2ccc(Cl)cc12)NC1CCN(c2ccc(C(F)(F)F)cn2)CC1` [Compound 105, 1-(5-chloro-1H-indol-3-yl)-3-(1-(5-(trifluoromethyl)pyridin-2-yl)piperidin-4-yl)urea]: 0.2 to 1 µM; for `O=C(Nc1c[nH]c2ccc(Cl)cc12)NC1CCN(Cc2ccc(C(F)(F)F)cn2)CC1` [Compound 107, 1-(5-chloro-1H-indol-3-yl)-3-(1-((5-(trifluoromethyl)pyridin-2-yl)methyl)piperidin-4-yl)urea]: 1 to 5 µM.
Same read-out and setting: the same measure for `O=C(Nc1c[nH]c2ccc(F)cc12)N[C@H]1CC[C@H](Oc2ccc(C(F)(F)F)cn2)CC1` [Compound 108, 1-(5-fluoro-1H-indol-3-yl)-3-((1r,4r)-4-((5-(trifluoromethyl)pyridin-2-yl)oxy)cyclohexyl)urea]: 0.2 to 1 µM; for `O=C(Nc1c[nH]c2ccc(F)cc12)N[C@H]1CC[C@@H](Oc2ccc(C(F)(F)F)cn2)CC1` [Compound 109, 1-(5-fluoro-1H-indol-3-yl)-3-((1s,4s)-4-((5-(trifluoromethyl)pyridin-2-yl)oxy)cyclohexyl)urea]: 0.2 to 1 µM; for `O=C(Nc1c[nH]c2ccc(Cl)cc12)N[C@H]1C[C@H](Oc2ccc(C(F)(F)F)cn2)C1` [Compound 110, 1-(5-chloro-1H-indol-3-yl)-3-((1r,3r)-3-((5-(trifluoromethyl)pyridin-2-yl)oxy)cyclobutyl)urea]: 0.2 to 1 µM.
`O=C(Nc1c[nH]c2ccc(Cl)cc12)N[C@H]1C[C@@H](Oc2ccc(C(F)(F)F)cn2)C1` [Compound 111, 1-(5-chloro-1H-indol-3-yl)-3-((1s,3s)-3-((5-(trifluoromethyl)pyridin-2-yl)oxy)cyclobutyl)urea] returned a half-maximal effective concentration (EC50) of 0.2 to 1 µM.
`O=C(Nc1c[nH]c2ccc(Cl)cc12)N[C@H]1CC[C@H](Oc2ccc(C(F)(F)F)cn2)CC1` [Compound 112, 1-(5-chloro-1H-indol-3-yl)-3-((1r,4r)-4-((5-(trifluoromethyl)pyridin-2-yl)oxy)cyclohexyl)urea] had an EC50 of 0.2 to 1 µM.
The molecule `O=C(Nc1c[nH]c2ccc(Cl)cc12)N[C@H]1CC[C@@H](Oc2ccc(C(F)(F)F)cn2)CC1` [Compound 113, 1-(5-chloro-1H-indol-3-yl)-3-((1s,4s)-4-((5-(trifluoromethyl)pyridin-2-yl)oxy)cyclohexyl)urea] gave a half-maximal effective concentration (EC50) of 0.2 to 1 µM.
On the same count and under the same terms, then `O=C(Nc1c[nH]c2ncc(F)cc12)N[C@H]1CC[C@@H](Oc2ccc(C(F)(F)F)cn2)CC1` [Compound 115, 1-(5-fluoro-1H-pyrrolo[2,3-b]pyridin-3-yl)-3-((1s,4s)-4-((5-(trifluoromethyl)pyridin-2-yl)oxy)cyclohexyl)urea], with 1 to 5 µM.

The experiment is the same for the next values; noted with them: 15 μM 2′3′cGAMP transfected, 24 h, numeric bound given instead of a class symbol.
The molecule `COCCN1CCC(O[C@H]2CC[C@H](NC(=O)Nc3c[nH]c4ccc(Cl)cc34)CC2)CC1` [Compound 106, 1-(5-chloro-1H-indol-3-yl)-3-((1r,4r)-4-((1-(2-methoxyethyl)piperidin-4-yl)oxy)cyclohexyl)urea] showed an EC50 of more than 30 µM.
Still for that read-out and setting: then `O=C(Nc1c[nH]c2ncc(F)cc12)N[C@H]1CC[C@H](Oc2ccc(C(F)(F)F)cn2)CC1` [Compound 116, 1-(5-fluoro-1H-pyrrolo[2,3-b]pyridin-3-yl)-3-((1r,4r)-4-((5-(trifluoromethyl)pyridin-2-yl)oxy)cyclohexyl)urea], with more than 30 µM.
